≈ marks a conversion by molar mass, not a printed value.
Key:
[1] = Dissociation constant, pKa of the compound by UV-metric method; format: physicochemical
[2] = octanol/water, pH 7.4
[3] = physchem; settings: 1-octanol/PBS, pH 7.4
[4] = in vivo; settings: Sprague-Dawley, rat, iv, 1 mg/kg
[5] = in vivo; settings: beagle, dog, iv, 0.5 mg/kg
[6] = in vivo; settings: FVB hSCN9a Tg, mouse, plasma, po, 30 mg/kg
[7] = in vivo; settings: FVB hSCN9a Tg, mouse, po, 30 mg/kg
[8] = in vivo; settings: brain/plasma
[9] = in vitro; settings: dog, MDCK-MDR1
[10] = in vitro; settings: dog, MDCK-MDR1; remark: listed apart in the source
[11] = physchem; settings: PBS, pH 7.4
[12] = in vivo; settings: CF1, mouse, iv, 0.5 mg/kg

## CS(=O)(=O)NC(=O)c1cc(Cl)c(OCC23CC4CC(CC(C4)C2)C3)cc1F
[1]
  pKa: 3.8
[2]
  logD: 2.4

## CS(=O)(=O)Nc1noc2cc(COc3ccc(Cl)c(Cl)c3)c(Cl)cc12
[3]
  logD: 2.5

## CS(=O)(=O)Nc1noc2cc(OCc3ccc(Cl)c(Cl)c3)c(Cl)cc12
[3]
  logD: 1.8

## CS(=O)(=O)Nc1noc2cc(COc3ccc(Cl)c(Cl)c3)c(C3CC3)cc12
[3]
  logD: 2.4

## CC(C)c1cn2c(NS(C)(=O)=O)nnc2cc1OCC12CC3CC(CC(C3)C1)C2
[3]
  logD: 2.9

## CS(=O)(=O)Nc1nnc2cc(OCC34CC5CC(CC(C5)C3)C4)c(C3CC3)cn12
[4]
  Vd: 0.6 L/kg
[5]
  Vd: 0.4 L/kg
[6]
  concentration at 3 h: 46.2 µM
[7]
  Tmax at 3 h: 2 h
[8]
  Kp: > 0.17
[3]
  logD: 3.5
[9]
  Papp A→B at 10 µM: 3.2 ×10⁻⁶ cm/s
[10]
  Papp B→A at 10 µM: 3.2 ×10⁻⁶ cm/s
[11]
  solubility kinetic at 24 h, 200 µM: 32 µM (≈ 13.3 µg/mL)

## CS(=O)(=O)Nc1nnc2cc(OCC34CC5CC(CC(C5)C3)C4)c(Br)cn12
[3]
  logD: 2.8

## O=S(=O)(Nc1nnc2cc(OCC34CC5CC(CC(C5)C3)C4)c(C3CC3)cn12)C(F)F
[3]
  logD: 3.1

## CS(=O)(=O)Nc1nnc2cc(OCC34CC5CC(CC(C5)C3)C4)c(Cl)cn12
[1]
  pKa: 5.6
[3]
  logD: 2.7

## CS(=O)(=O)Nc1nnc2cc(COc3cc(Cl)cc(Cl)c3)c(C3CC3)cn12
[4]
  Vd: 0.6 L/kg
[12]
  Vd: 0.2 L/kg
[6]
  concentration at 3 h: 18.8 µM
[8]
  Kp: < 0.004
[3]
  logD: 1.9
[9]
  Papp A→B at 10 µM: 4 ×10⁻⁶ cm/s
[10]
  Papp B→A at 10 µM: 15 ×10⁻⁶ cm/s
[11]
  solubility kinetic at 24 h, 200 µM: 17 µM (≈ 7.26 µg/mL)

## O=S(=O)(Nc1nnc2cc(OCC34CC5CC(CC(C5)C3)C4)c(C3CC3)cn12)C1CCC1
[3]
  logD: 4.7

## CCc1cn2c(NS(C)(=O)=O)nnc2cc1OCC12CC3CC(CC(C3)C1)C2
[3]
  logD: 3.1

## CS(=O)(=O)Nc1nnc2cc(OCC34CC5CC(CC(C5)C3)C4)c(C3CCC3)cn12
[3]
  logD: 3.9

## CS(=O)(=O)Nc1nnc2cc(OCC3C4CC5CC(C4)CC3C5)c(C3CC3)cn12 (configuration not stated)
[3]
  logD: 2.3

## CS(=O)(=O)Nc1nnc2cc(OCC34CC5CC(CC(C5)C3)C4)ccn12
[3]
  logD: 2.2

## CNS(=O)(=O)Nc1nnc2cc(OCCC34CC5CC(CC(C5)C3)C4)c(C3CC3)cn12
[3]
  logD: 3.7

## CS(=O)(=O)Nc1noc2cc(OCC34CC5CC(CC(C5)C3)C4)c(Cl)cc12
[1]
  pKa: 4.7
[3]
  logD: 3.5

## CS(=O)(=O)Nc1nnc2cc(COc3ccc(Cl)c(Cl)c3)c(C3CC3)cn12
[3]
  logD: 1.5

## CNS(=O)(=O)Nc1nnc2cc(OCC34CC5CC(CC(C5)C3)C4)c(C3CC3)cn12
[3]
  logD: 3.2
